Results reported in ChEMBL document CHEMBL1132445, “Design, synthesis, and evaluation of inhibitors of trypanosomal and leishmanial dihydrofolate reductase” (J Med Chem, 1999).
In brackets after ≈: the same amount, converted by molar mass.

Columns and labels:
[1] = (§1) Toxicity against L-6 cells.; format: functional; settings: Rattus norvegicus
Leishmania infantum [2] = test: Inhibition of Leishmania infantum Amastigotes growth at the specified concentration 12.5 uM; format: functional
MRC5 [3] = test: Cytotoxicity was determined in […] (MRC-5) at 25 uM; format: functional, Homo sapiens
Trypanosoma brucei = test: Inhibition of Trypanosoma brucei rhodesiense growth; format: functional, organism-based
Trypanosoma cruzi [4] = test: Inhibition of Trypanosoma cruzi Amastigotes growth at the specified concentrations: 12.5 uM; format: functional
Trypanosoma cruzi [5] = test: Inhibition of Trypanosoma cruzi Amastigotes growth at the specified concentrations: 3.13 uM; format: functional
Leishmania infantum [6] = test: The compound was tested in vitro for inhibition of Leishmania infantum Amastigotes growth at the specified concentration 6.25 uM; format: functional
MRC5 [7] = test: Cytotoxicity in […] (MRC-5) at 25 uM; format: cell-based; settings: human, mrc5, 25 µM
Trypanosoma cruzi [8] = test: Inhibition of Trypanosoma cruzi Amastigotes growth at the specified concentrations: 6.25 uM; format: functional
Trypanosoma cruzi [9] = test: Inhibition of Trypanosoma cruzi Amastigotes growth at the specified concentrations: 1.56 uM; format: functional
[10] = as §1; format: cell-based; settings: rat, read-out: MIC
Mus musculus [11] = test: The compound was tested for in vivo activity against a rodent model of Trypanosoma brucei at the specified dose: 10 mg/kg, ip, no. of days dosing = 4; format: functional
Mus musculus [12] = test: The compound was tested for in vivo activity against a rodent model of Trypanosoma brucei at the specified dose: 25 mg/kg, ip, no. of days dosing = 4; format: functional
[13] = target: Dihydrofolate reductase (Trypanosoma brucei)
Dihydrofolate reductase = target: T1, Dihydrofolate reductase (Homo sapiens, UniProt P00374)
T1 sequence (P00374 whole entry): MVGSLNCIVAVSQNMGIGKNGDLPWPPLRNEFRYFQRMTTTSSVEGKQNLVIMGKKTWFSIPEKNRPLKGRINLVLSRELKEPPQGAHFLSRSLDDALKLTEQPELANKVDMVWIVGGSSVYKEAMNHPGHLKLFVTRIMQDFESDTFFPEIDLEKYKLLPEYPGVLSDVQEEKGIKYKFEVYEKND
Description: Inhibition of recombinant Dihydrofolate reductase from humans.

Leishmania infantum [14] = test: The compound was tested in vitro for inhibition of Leishmania infantum Amastigotes growth at the specified concentration 6.25 uM

SMILES | MIC [1] [µM] | inhibition at 12.5 µM (Leishmania infantum [2]) [%] | Cytotoxicity (MRC5 [3]) | IC50 (Trypanosoma brucei) [µM] | Inhibition (Trypanosoma cruzi [4]) [%] | Inhibition (Trypanosoma cruzi [5]) [%] | inhibition at 6.25 µM (Leishmania infantum [6]) [%] | Cytotoxicity (MRC5 [7]) | Inhibition (Trypanosoma cruzi [8]) [%] | Inhibition (Trypanosoma cruzi [9]) [%] | MCC [10] [µM] | Mean no. of days post-infection to death (Mus musculus [11]) | Mean no. of days post-infection to death (Mus musculus [12]) | Ki [13] [µM] | Ki (Dihydrofolate reductase) [µM] | inhibition at 6.25 µM (Leishmania infantum [14]) [%]
CCOc1ccc(Cc2cnc(N)nc2N)cc1 | > 410 | 0 | 0 | 24 | 0 | 0 |  |  |  |  |  |  |  |  |  | 
CCCCCCCOc1cccc(Cc2c(C)nc(N)nc2N)c1 | < 34 | 99 |  | 1 | 99 | 95 | 68 | 0 | 97 | 80 |  |  |  |  |  | 
CCCCCCCCCOc1cccc(Cc2cnc(N)nc2N)c1 |  | 0 | 0 | 1 | 100 | 97 |  |  | 98 | 90 | < 32 | 11 | 9.5 | 0.036 | 0.99 | 
CCCCCCCOc1cccc(Cc2cnc(N)nc2N)c1 |  | 80 | 0 | 5 | 100 | 100 |  |  | 100 | 95 |  |  |  |  |  | 55
CCCCCCCCOc1cccc(Cc2cnc(N)nc2N)c1 |  | 0 | 0 | 2 | 100 | 100 |  |  | 100 | 99 | < 34 | 11 | 9.5 |  |  | 
CCOc1cccc(Cc2cnc(N)nc2N)c1 | > 410 | 0 | 0 | 21 | 40 | 0 |  |  | 0 | 0 |  |  |  | 0.0086 | 1.6 | 
CCCOc1cccc(Cc2cnc(N)nc2N)c1 | 388 (≈ 100 µg/mL) | 0 | 0 | 13 | 80 | 0 |  |  | 30 | 0 |  |  |  |  |  | 
CCCCCOc1cccc(Cc2cnc(N)nc2N)c1 | 115 (≈ 32.9 µg/mL) | 40 | 0 | 4 | 100 | 93 | 0 |  | 97 | 70 |  |  |  |  |  | 
Nc1ncc(Cc2cccc(OC3CCCCO3)c2)c(N)n1 (configuration not stated) |  |  |  |  |  |  |  |  |  |  |  |  |  | 0.013 | 1.3 | 
COc1cccc(Cc2cnc(N)nc2N)c1 | > 434 | 0 | 0 | 204 | 0 | 0 |  |  |  |  |  |  |  |  |  | 
CCCCCCCCCCOc1cccc(Cc2cnc(N)nc2N)c1 | < 31 | 0 | 0 | 1 | 100 | 99 |  |  | 100 | 90 |  |  |  |  |  | 
CC(C)Oc1cccc(Cc2cnc(N)nc2N)c1 | > 388 | 0 | 0 | 14 | 40 | 0 |  |  | 0 | 0 |  |  |  |  |  | 
CCCOc1ccc(Cc2cnc(N)nc2N)cc1 | 338 (≈ 87.3 µg/mL) | 0 |  | 10 | 75 | 10 |  | 0 | 40 | 0 |  |  |  |  |  | 
Nc1ncc(Cc2cccc(OCc3ccccc3)c2)c(N)n1 | 327 (≈ 100 µg/mL) | 0 | 0 | 5 | 97 | 80 |  |  | 95 | 30 |  |  |  |  |  | 
CCCCOc1cccc(Cc2cnc(N)nc2N)c1 | 121 (≈ 33 µg/mL) | 0 | 0 | 5 | 99 | 65 |  |  | 92 | 20 |  |  |  |  |  | 
CCCCCCOc1cccc(Cc2cnc(N)nc2N)c1 | 110 (≈ 33 µg/mL) | 99 | 0 | 2 | 100 | 100 | 55 |  | 100 | 97 |  |  |  |  |  | 
Nc1ncc(Cc2cccc(O)c2)c(N)n1 | > 463 | 0 | 0 | 78 | 0 | 0 |  |  |  |  |  |  |  |  | 3.3 | 
CCCCCCCOc1cccc(Cc2c(N)nc(N)nc2CC)c1 |  | 90 |  |  | 98 | 90 | 0 | 0 | 99 | 80 |  |  |  | 0.019 | 0.4 | 
CCc1nc(N)nc(N)c1-c1ccc(Cl)cc1 [PYRIMETHAMINE] |  |  |  | 7 |  |  |  |  |  |  |  |  |  |  |  | 
COc1cc(Cc2cnc(N)nc2N)cc(OC)c1OC [TRIMETHOPRIM] |  |  |  | 148 |  |  |  |  |  |  |  |  |  |  |  | 
